Source: PubChem BioAssay AID1996
In brackets after ≈: the same amount, converted by molar mass.

conditions: buffer; pH 7.4; 200.0 µM

Row | Compound | solubility kinetic [µg/mL]
1 | O=C(COC(=O)c1ccccc1Br)NC1CCCCCCC1 | 25.1 (≈ 68.2 µM)
2 | O=C(COc1ccc(Cl)cc1)NCCCNC(=O)c1ccccn1 | 50.5 (≈ 145 µM)
3 | CCc1nc(NCCO)c(C#N)c2c1CSC(C)(C)C2 | 41.2 (≈ 141 µM)
4 | c1ccc(CCNCCCOc2cccc3ccccc23)cc1 | 37.1 (≈ 121 µM)
5 | COc1cc2nc(Cl)nc(N3CCOCC3)c2cc1OC | 13.1 (≈ 42.3 µM)
6 | O=C(COC(=O)C1CC2CCCC(C1)C2=O)Nc1ccccc1 (centres undefined) | 46.5 (≈ 147 µM)
7 | CCc1ccccc1Cn1c(=O)oc2cccnc21 | > 38.1
8 | Cc1cccc(OCC(=O)OC(C)CN2CCCCC2)c1.Cl (centres undefined) | > 49.2
9 | CCNC(=O)COC(=O)c1cc(C)nc2ccccc12 | > 40.8
10 | COc1ccc(CCC(=O)Nc2ccc(Cn3ccnc3)cc2)cc1 | 44.2 (≈ 132 µM)
11 | O=C(CSc1cccc2cccnc12)N/N=C/c1ccncc1 | > 48.4
12 | CCOc1nc(CC(C)C)c2c(c1C#N)CC(C)(C)OC2 | 2.4 (≈ 8.32 µM)
13 | COc1ccccc1CCC(=O)NNC(=O)c1ccncc1 | > 44.9
14 | CC[n+]1oc(-c2ccccc2)cc1C.F[B-](F)(F)F | 37.4
15 | COc1ccc2oc(=O)c(N3C(=O)c4ccccc4C3=O)cc2c1 | 1.2 (≈ 3.73 µM)
16 | Cn1c(=O)c2c([nH]c(=S)n2CCCc2ccccc2)n(C)c1=O | 35.8 (≈ 108 µM)
17 | Cc1ccc(-c2cc(-c3ccccc3)nc(N)c2C#N)o1 | < 0.2
18 | C/C(=N\O)c1noc(C)c1C(=O)Nc1nccs1 | 2 (≈ 7.51 µM)
19 | COC(=O)c1cccc(NC(=O)Nc2ccc(Cl)cc2)c1 | < 0.3
20 | CN(c1ccccc1)c1nc(N)c([N+](=O)[O-])c(Nc2ccccc2)n1 | < 0.1
21 | Cc1cc(NC(=O)CN2CCN(c3cccc(Cl)c3)CC2)no1 | 45.5 (≈ 136 µM)
22 | CCN1C(=O)c2cccc3c(N)ccc1c23 | > 31.8
23 | Cc1ccc(OCCNC(=O)CNC(=O)c2ccccc2Cl)cc1 | > 52
24 | Cc1ccc(Sc2c([N+](=O)[O-])c(=O)n(C)c3ccccc23)cc1 | < 0.3
25 | COC(=O)c1ccc(COc2ccc(C)cc2[N+](=O)[O-])o1 | 3.3 (≈ 11.3 µM)

Row | Compound | solubility kinetic [µg/mL]
26 | CNC(=S)Nc1cccc(-c2cnc3ccccc3n2)c1 | 43.7 (≈ 148 µM)
27 | CC1CCCC(NC(=O)CSc2ccc(F)cc2)C1C (centres undefined) | 2.8 (≈ 9.48 µM)
28 | O=c1cc(COc2ccccc2[N+](=O)[O-])nc2sccn12 | 2.7 (≈ 8.9 µM)
29 | COc1nc(SCC(=O)Nc2ccccc2Cl)nc(N(C)C)n1 | 20.4 (≈ 57.7 µM)
30 | CC(=O)Nc1ccc(CN2CCCN(C)CC2)cc1 | 29.2 (≈ 112 µM)
31 | Cc1ccnc(NC(=O)Cc2c(F)cccc2Cl)c1 | > 41.8
32 | Cl.O=C(NCCN1CCOCC1)c1ccccc1OCc1ccccc1 | > 56.5
33 | COc1cnc(NS(=O)(=O)c2ccc(N)cc2)nc1 | > 42
34 | CCOC(=O)C1=C(COC(=O)CCc2ccc(CC)cc2)NC(=O)NC1C (centres undefined) | 40 (≈ 107 µM)
35 | COc1ccccc1C(=O)Nc1nsc(-c2ccccc2)n1 | 8.8 (≈ 28.3 µM)
36 | CCn1c(SCC(=O)N2CCOCC2)nnc1-c1ccco1 | > 48.4
37 | O=C(Nc1nccs1)c1cccc2ccccc12 | 1.9 (≈ 7.47 µM)
38 | CC(C)C[C@H](NC(=O)N1CCCCCC1)C(=O)O | > 38.5
39 | CN(C)c1ccc(C(=O)OCC(=O)N2CCCCCC2)cc1 | 33.9 (≈ 111 µM)
40 | O=c1c(Cc2ccc(Cl)cc2)c(O)ccn1Cc1cccs1 | 4.6 (≈ 13.9 µM)
41 | N#CCN1C(=O)NC2(CCCc3sccc32)C1=O (centres undefined) | > 39.2
42 | COc1ccc(NC(=S)Nc2cccc3cnccc23)cc1 | 9.9 (≈ 32 µM)
43 | COc1ccc(C(=O)NC2CCCc3ccccc32)c(OC)c1OC (centres undefined) | 41.9 (≈ 123 µM)
44 | CCOC(=O)C1CCN(C/C=C/c2ccccc2)CC1 | 27.2 (≈ 99.5 µM)
45 | S=c1nc(COc2ccccc2)[nH]c2ccccc12 | 8 (≈ 29.8 µM)
46 | O=C(NCCCn1ccnc1)c1cc(C(=O)C2CCCCC2)c[nH]1 | 49 (≈ 149 µM)
47 | C=CCOc1ccc(/C=C2\SC(N3CCCCC3)=NC2=O)cc1 | < 0.4
48 | O=C(NC(=O)c1ccccc1O)c1ccc(C(F)(F)F)cc1 | 2.3 (≈ 7.44 µM)
49 | Cc1cc(C(C)(C)C)oc1C(=O)OCC(=O)NC1CCCCC1 | 1.1 (≈ 3.42 µM)
